Measurements as given in article PMC9106035, “Synthesis, X-ray Structure and Biological Studies of New Self-Assembled Cu(II) Complexes Derived from s-Triazine Schiff Base Ligand” (Molecules, 2022).
Values after ≈ are worked out from the molar mass of the structure shown. Values joined by “and” are separate entries in the source; they are usually repeats but may differ in a detail not shown here. Equal values may be shown once. Read-outs that look alike come from different tables or passages of the source. Marks after values point to notes of the source that are not given here.

Legend:
[1] = DPPH radical scavenging assay; assay type: biochemical
Experimental: The studied Cu(II) complexes and the free ligands were assessed for their antioxidant activity levels using an α,α-diphenyl-β-picrylhydrazyl (DPPH) scavenging assay, and the results are given in Table 7. […] The results indicated better antioxidant activity for DMAT than for DMOHT, indicating the effect of the substituent at the phenyl moiety on the antioxidant activity level of the free ligand. […] On the other hand, the Cu(II) complexes have improved levels of antioxidant activity compared to the free ligands.
Method S3 DPPH Radical Scavenging Activity:
Freshly prepared (0.004 %w/v) methanol solution of 2,2-diphenyl-1-pi crylhydrazyl (DPPH) radical was prepared and stored at 10 °C in dark place. A methanolic solution of the test compound was prepared using the same procedure. A 40 uL aliquot of the methanol solution was added to 3mL of DPPH solution. Absorbance measurements were recorded immediately with a UV-visible spectrophotometer (Milton Roy, Spectronic 1201). The decrease in absorbance at 515 nm was determined continuously, with data being recorded at 1 min intervals until the absorbance stabilized (16 min). The absorbance of the DPPH radical without antioxidant (control) and the reference compound ascorbic acid were also measured.
All the determinations were performed in three replicates and averaged. The percentage inhibition (PI) of the DPPH radical was calculated according to the […]
PI = [{(AC- AT)/ AC} x 100] (1)
Where AC = Absorbance of the control at t = 0 min and AT = absorbance of the sample+DPPH at t = 16 min. The 50% inhibitory concentration (IC50), the concentration required t o inhibit DPPH radical by 50%, was estimated from graphic plots of the dose respons e curve.

E. coli (ATCC 25922) [2] = assay: Minimum Inhibitory Concentration (MIC); assay type: cell-based
Experimental: (§1) Method S2: Antimi crobial studies a) Tested pathogenic microbes
(§2) The antibacterial a ctivity of the studied ligands and their Cu(II) complexes were evaluated against two Gram positive bacteria ((S. aureus (ATCC 25923) and B. subtilis (RCMB015(1)NRR LB-543)), two Gram negatvie bacteria ((E. coli (ATCC 25922) and P. vulgaris (RCMB 004(1)ATCC 13315)) and two fungi ((A. fumigatus […]
(§3) was used as standard antibacterial agent. The samples maintained in Brain heart infusion (BHI) at 20 °C; […] of each stock–c ulture was added to 3 mL of BHI broth. Overnight cultures were kept for 24 h at 37 °C ± 1 °C and the purity of cultures was checked aft er 24 h of incubation. […]
(§4) c) Minimum Inhibitory Concentration (MIC)
(§5) Different dilutions of the compounds are inoculat ed with tested pathogenic microbes.
(§6) After incubation period of 96 well microplate, the results are meas ured using microplate reader. To determine at what level the MIC endpoint is established; subculture of test samples at different concentrati ons occurred in nutrient agar plates.

S. aureus (ATCC 25923) [3] = assay: Minimum Inhibitory Concentration (MIC); assay type: cell-based
Experimental: as §1, §2, §3, §4, §5, §6

[4] = test system: B. subtilis (RCMB015(1)NRR LB-543); assay: Minimum Inhibitory Concentration (MIC); assay type: cell-based
Experimental: as §1, §2, §3, §4, §5, §6

[5] = test system: P. vulgaris (RCMB 004(1)ATCC 13315); assay: Minimum Inhibitory Concentration (MIC); assay type: cell-based
Experimental: as §1, §2, §3, §4, §5, §6

E. coli (ATCC 25922) [6] = assay: Agar well diffusion, inhibition zone; assay type: cell-based; conditions: 10 mg/mL of the tested compounds
Experimental: (§7) The antimicrobial activity of the free ligands and the corresponding Cu(II) complexes was determined against different categories of microbes (Table 5). All inhibition zones were determined at 10 mg/mL of the tested compounds. […] The largest inhibition zones were found for B. subtilis (25 mm), which is very close to the standard Gentamycin (26 mm). […] Complex 1 evidenced antimicrobial activity against all microbes except C. albicans.
as §1, §2, §3
(§8) b) Agar well diffusion method
(§9) Synthetic compounds were prepared at concentration 10 mg/mL dissolved in DMSO as stock solutions. Preparation of sterilized Mueller Hinton agar plates seeded with tested pathogenic b acteria occurred. The wells are done by sterilized cork borer in size […]
(§10) comparably with DMSO as control. The plates were incubated at 37°C for 24 h. after incubation period; antimicrobial activity was d etermined by inhibition zones. […]

S. aureus (ATCC 25923) [7] = assay: Agar well diffusion, inhibition zone; assay type: cell-based; conditions: 10 mg/mL of the tested compounds
Experimental: as §7, §1, §2, §3, §8, §9, §10

[8] = test system: B. subtilis (RCMB015(1)NRR LB-543); assay: Agar well diffusion, inhibition zone; assay type: cell-based; conditions: 10 mg/mL of the tested compounds
Experimental: as §7, §1, §2, §3, §8, §9, §10

[9] = test system: P. vulgaris (RCMB 004(1)ATCC 13315); assay: Agar well diffusion, inhibition zone; assay type: cell-based; conditions: 10 mg/mL of the tested compounds
Experimental: as §7, §1, §2, §3, §8, §9, §10

[10] = test system: C. albicans (RCMB 005003(1) ATCC 10231); assay: Agar well diffusion, inhibition zone; assay type: cell-based; conditions: 10 mg/mL of the tested compounds
Experimental: as §7, §1
(§11) The antibacterial a ctivity of the studied ligands and their Cu(II) complexes were evaluated against two Gram positive bacteria ((S. aureus (ATCC 25923) and B. […]
(§12) 0.5). In case of fungi A. fumigatus (RCMB 002008) and C. albicans (RCMB 005003(1) ATCC 10231), the used medium in antagonistic activity against tested fungi is Potato Dextrose Agar, where Fluconazole was used standard antifungal agent. b) Agar well diffusion method
as §9, §10

[11] = test system: A. fumigatus (RCMB 002008); assay: Agar well diffusion, inhibition zone; assay type: cell-based; conditions: 10 mg/mL of the tested compounds
Experimental: as §7, §1, §2
was used as standard antibacterial agent. The samples maintained in Brain heart infusion (BHI) at 20 °C; […] of each stock–c ulture was added to 3 mL of BHI […]
broth. […]
as §12, §9, §10

[12] = test system: A. fumigatus (RCMB 002008); assay: Minimum Inhibitory Concentration (MIC); assay type: cell-based
Experimental: as §1, §11
(§13) 0.5). In case of fungi A. fumigatus (RCMB 002008) and C. albicans (RCMB 005003(1) ATCC 10231), the used medium in antagonistic activity against tested fungi is Potato Dextrose Agar, where Fluconazole was used standard antifungal agent. […]
as §4, §5, §6

[13] = test system: C. albicans (RCMB 005003(1) ATCC 10231); assay: Minimum Inhibitory Concentration (MIC); assay type: cell-based; conditions: Candida albicans, read-out: MIC
Experimental: as §1, §11, §13, §4, §5, §6

[14] = test system: lung carcinoma A-549 cell line; assay: Anticancer activity, MTT viability assay; assay type: cell-based; conditions: A-549 cells, 24 h, MTT
Experimental: The studied compounds were examined for their anticancer activity against the lung carcinoma A-549 cell line.
Method S4 Evaluation of Cytotoxic activity
The cells were propagated in Dulbecco’s modified Eagle’s medium (DMEM) supplemented with 10% heat-inactivated fetal bovine serum, 1 % L-glutamine, HEPES buffer and 50µg/mL Gentamycin. All cells were maintained at 37 °C in a humidified atmosphere with 5% CO2 and were subcultured tw o times a week.
Cytotoxicity evaluation using viability assay
For cytotoxicity assay, the cells were seeded in 96-well plate at a cell concentration of 1×10^4 cells per well in 100µl of growth medium. Fresh medium containing different concentrations of the test sample was added after 24 h of seeding. Serial two-fold dilutions of the tested chemical compound were added to confluent cell monolayers dispensed into 96-well, flat-bottomed microtiter plates (Falcon, NJ, USA) using a multichannel pipette. The microtiter plates were incubated at 37 °C in a humidified incubator with 5% CO2 for a period of 24 h. Three wells were used for each concentration of the test sample. Control cells were incubated without test sample and with or without DMSO. The little percentage of DMSO present in the […]
cells for at 37°C, for 24 h, the viabl e cells yield was determined by the MTT test.
Briefly, the media was removed from the 96 well plate and replaced with 100 µL of fresh culture DMEM m edium without phenol red then 10 µL of the 12 mM MTT stock solution (5 mg of MTT in 1 mL of PBS) to each well including the untreated controls. The 96 well plates were then incubated at 37°C and 5% CO2 for 4 hours. An 85 µL aliquot of the media was removed from t he wells, and 50 µL of DMSO was added to each well and mixed thoroughly with the pipette and incubated at 37°C for 10 min. Then, the optical density was measured at 590 nm with the microplate reader (SunRise, TECAN, Inc, USA) to determine the number of viable cells and the percentage of viability was calculat ed as [(ODt/ODc)]x100% where ODt i s the mean optical density of wells treated with the tested s ample and ODc is the mean optical density of untreated cells. The relation between surviving cells and drug concentration is plotted to get the survival curve of each tumor cell line after treatment with the specified compound. The 50% inhibitory concentration (IC50), the concentration required to cause t oxic effects in 50% of intact cells, was estimated from graphic plots of the dose response curve for each conc. using Graphpad Prism software (San Diego, […]

**Q.** Which “DPPH Scavenging %” value ([1]; Conc. 2.5 μg/mL) does the source give for `O=C1O[C@H]([C@@H](O)CO)C(O)=C1O` [Ascorbic Acid, ascorbic acid, reference compound] here?
**A.** 34.57%

**Q.** And the “DPPH Scavenging %” value ([1]; Conc. 5 μg/mL)?
**A.** 40.36%

**Q.** What about the “DPPH Scavenging %” value ([1]; Conc. 10 μg/mL) of the same molecule?
**A.** 48.52%

**Q.** And the “DPPH Scavenging %” value ([1]; Conc. 20 μg/mL)?
**A.** 71.38%

**Q.** What about the “DPPH Scavenging %” value ([1]; Conc. 40 μg/mL) of the same molecule?
**A.** 83.09%

**Q.** What about the “DPPH Scavenging %” value ([1]; Conc. 80 μg/mL) of the same molecule?
**A.** 90.25%

**Q.** What about the “DPPH Scavenging %” value ([1]; Conc. 160 μg/mL) of the same molecule?
**A.** 92.31%

**Q.** And the “DPPH Scavenging %” value ([1]; Conc. 320 μg/mL)?
**A.** 95.64%

**Q.** And the “DPPH Scavenging %” value ([1]; Conc. 640 μg/mL)?
**A.** 97.83%

**Q.** And the “DPPH Scavenging %” value ([1]; Conc. 1280 μg/mL)?
**A.** 98.91%

**Q.** And the “IC50 (DPPH scavenging)” value ([1]; antioxidant activity)?
**A.** 10.62 ± 0.84 µg/mL (≈ 60.3 µM)

**Q.** Which MIC (E. coli (ATCC 25922) [2]) does the source give for Gentamycin [reference compound] here?
**A.** 4.8 ^b μg/mL

**Q.** And the MIC (S. aureus (ATCC 25923) [3])?
**A.** 9.7 ^b μg/mL

**Q.** What about the MIC [4] of the same molecule?
**A.** 4.8 μg/mL and 4.8 ^b μg/mL

**Q.** What about the MIC [5] of the same molecule?
**A.** 4.8 ^b μg/mL

**Q.** And the Inhibition zone diameters (E. coli (ATCC 25922) [6])?
**A.** 30 ^b mm

**Q.** What about the Inhibition zone diameters (S. aureus (ATCC 25923) [7]) of the same molecule?
**A.** 24 ^b mm

**Q.** What about the Inhibition zone diameters [8] of the same molecule?
**A.** 26 mm and 26 ^b mm

**Q.** What about the Inhibition zone diameters [9] of the same molecule?
**A.** 25 ^b mm

**Q.** With `CC(=O)N1CCN(c2ccc(OCC3COC(Cn4ccnc4)(c4ccc(Cl)cc4Cl)O3)cc2)CC1` (stereo not shown) [Ketoconazole, reference compound] as the molecule, how does the Inhibition zone diameters [10] read?
**A.** 20 ^a mm

**Q.** What about the Inhibition zone diameters [11] of the same molecule?
**A.** 17 mm and 17 ^a mm

**Q.** What about the MIC [12] of the same molecule?
**A.** 156.25 ^a μg/mL

**Q.** And the MIC ([12]; Aspergillus fumigatus, RCMB002008, read-out: MIC)?
**A.** 156 µg/mL (≈ 294 µM)

**Q.** What about the MIC [13] of the same molecule?
**A.** 312 µg/mL (≈ 588 µM)

**Q.** With `N.N.[Cl][Pt][Cl]` [cis-Platin, cis-platin, reference compound] as the molecule, how does the IC50 [14] read?
**A.** 25 µM
